From patent publication US20060128792A1, “Deguelin as a chemopreventive agent for lung cancer” (priority 2002, published 2006)
“And” between values parts separate entries of the source, which are not always exact repeats. Equal values may be shown once.

How the values were obtained:
[1] = test system: caspase-3, PARP, Bax, Bcl-2, Bcl-xL in 1799 cells; assay: Western blot of caspase-3, PARP and Bcl family proteins; assay type: cell-based
Description: (§1) Immunoblotting. Whole cell lysates were prepared in lysis buffer (50 mM N-[2-hydroxymethyl]-piperazine-N′-[2-ethanesulfonic acid] [HEPES; pH 7.5], 150 mM NaCl, 1.5 mM MgCl2, ImM EDTA, 0.2 mM EGTA, 1% NP40, 10% glycerol, 1 mM dithiothreitol (DTT), 1 mM phenylmethylsulfonyl fluoride, 20 mM sodium fluoride, 5 mM sodium orthovanadate, 10 μg/ml aprotinin, 10 μg/ml leupeptin, 2 μg/ml pepstatin, and 1 mM benzamidine) as described previously (Lee et al., 2002). Equivalent protein concentrations were resolved in sodium dodecyl sulfate-polyacrylamide gels and transferred to a nitrocellulose membrane. After the blocking of transblotted membrane in Tris-buffered saline (TBS) containing 0.05% Tween 20 (TBST) and 5% low fat milk, themembrane was incubated with primary antibody at the appropriate dilution in TBS-5% low-fat milk at 4° C. for 16 h and washed with TBST. The immunoblots were visualized using the ECL kit (Amersham, Inc., Arlington Heights, III) according to the manufacturer's directions. Rabbit polyclonal antibodies against human pAkt (Ser473), Akt, and pGSK-3β (Ser9), and mouse monoclonal antibody against human anti-pMAPK (Thr202/Tyr204) were purchased from Cell Signalinng Technology (Beverly, Mass.). Rabbit polyclonal anti-glycogen synthase (GSK)-3 α/β (BD Transduction Laboratories, Lexington, Ky.), rabbit polyclonal anti-Bax and anti-caspase-3 antibodies (Pharmingen, San Diego, Calif.), rabbit polyclonal anti-Bcl2 and rabbit polyclonal anti-poly (ADP-ribose) polymerase O?ARP) antibody (VIC 5) (Roche Molecular Biochemicals, Indianapolis, Ind.), goat antibodies against Erk-1, Erk-2, and β-Actin (Santa Cruz Biotechnology, Inc., Santa Cruz, Calif.) were used for western blot analysis.

[2] = test system: bFGF-induced angiogenesis; assay: Matrigel plug assay, bFGF-induced angiogenesis; assay type: in vivo, nude mice; conditions: 5 nmole deguelin plus bFGF, seven days
Description: Inhibition of angiogenesis by deguelin was also evaluated using the Matrigel™ plug assay, an established in vivo angiogenesis model, using nude mice. Matrigel alone was used as a negative control, 100 ng/ml bFGF and 72 units/ml heparin in a vehicle of 0.1% BSA/PBS (bFGF) for a positive control, 5 nmole deguelin alone, and 5 nmole deguelin plus bFGF were included. Seven days after injection, mice were sacrificed. […] 1, 1 and 10 μM concentrations of deguelin in these cells. All of these findings indicated the anti-angiogenic activity of deguelin.

[3] = test system: pAkt (Ser473) and pGSK-3β (Ser9) in squamous HBE cells; assay: Western blot of pAkt (Ser473) and pGSK-3β (Ser9); assay type: cell-based; conditions: time-dependent
Description: as §1, with “Rabbit polyclonal anti-glycogen synthase (GSK)-3 α/β (BD Transduction Laboratories, Lexington, Ky.), rabbit polyclonal anti-Bax and anti-caspase-3 antibodies (Pharmingen, San Diego, Calif.), rabbit polyclonal anti-Bcl2 and rabbit polyclonal anti-poly (ADP-ribose) polymerase O?ARP) antibody (VIC 5) (Roche Molecular Biochemicals, Indianapolis, Ind.), goat antibodies against Erk-1, Erk-2, and β-Actin (Santa Cruz Biotechnology, Inc., Santa Cruz, Calif.) were used for western blot analysis.” left out
Effects of Deguelin on Squamous Differentiated HBE Cells. […] It was then determined whether deguelin inhibits the activation of PI3K/Akt pathway in squamous HBE cells. […]

HUVEC cells = assay: HUVEC proliferation, MTT assay; assay type: cell-based; conditions: 0.1, 1 and 10 μM, 3 days
Description: FIGS. 9A-9D.—Anti-angiogenic activity of deguelin. (FIG. 9A) CAMs after incubation with Thermanox coverslips containing vehicle (Con), deguelin ([…]) or RA (1 μg) as a positive control or for 48 h (circle indicate the placement of coverslip). (FIG. 9B) The anti-angiogenic effect of deguelin was evaluated by calculating the percentage of positive eggs. □ empty coverslip as control; ▪ RA 1 μg/egg; ▪ deguelin 1 or 5 nmole/egg. Each value represents the mean±SE. (FIG. 9C) Appearance of matrigel from mice. The effects of deguelin on bFGF-induced angiogenesis in vivo was analyzed by matrigel plug assay using nude mouse. Matrigel alone (Con)—negative control, 100 ng/ml bFGF and 72 units/ml heparin in a vehicle of 0.1% BSA/PBS (bFGF)—positive control, 5 niole deguelin alone, and 5 nmole deguelin plus bFGF were included. (FIG. 9D) Proliferation of HUVEC cells treated with indicated doses of deguelin for 3 days was analyzed by MTT assay. Bars, means±SD of a representative experiment done in triplicate from five independently performed experiments for each cell line.
Inhibition of angiogenesis by deguelin was also evaluated using the Matrigel™ plug assay, an established in vivo angiogenesis model, using nude mice. […]

H460 = assay: MTT assay, growth inhibition by deguelin or deguelin derivatives; assay type: cell-based; conditions: H460, 3 days
H358 = assay: as above; assay type: cell-based; conditions: H358, 3 days
H226B = assay: as above; assay type: cell-based; conditions: 3 days

SMILES: COc1cc2c(cc1OC)[C@@H]1C(=O)c3ccc4c(c3O[C@@H]1CO2)C=CC(C)(C)O4 [Deguelin]
- Bcl-2 expression [1]: mild decrease
- Bcl-xL level [1]: not affected
- level of Bax [1]: dose-dependent increase
- 32-kDa caspase-3 proenzyme (with increase of 89-kDa PARP fragment) ([1]; more than 10^−8 M deguelin, 3 days): significant decrease
- bFGF-induced angiogenesis in Matrigel plugs [2]: markedly inhibit
- elevated levels of pAkt (Ser473) and pGSK-3β (Ser9) [3]: down-regulated
- proliferation of HUVEC cells (HUVEC cells): Inhibition of cell proliferation was observed
- Avg. % con (H460; deguelin 10^−6M): 0.17 % con
- MTT value, mean of replicates (unheaded line) (H460; deguelin 10^−6M): 0.129
- MTT value, replicate (unheaded line) (H460; deguelin 10^−6M): 0.115 and 0.141 and 0.131
- Avg. % con (H460; deguelin 10^−8M): 0.86 % con
- MTT value, mean of replicates (unheaded line) (H460; deguelin 10^−8M): 0.635
- MTT value, replicate (unheaded line) (H460; deguelin 10^−8M): 0.632 and 0.652 and 0.62
- Avg. % con (H460; deguelin 10^−10M): 1.03 % con
- MTT value, mean of replicates (unheaded line) (H460; deguelin 10^−10M): 0.762
- MTT value, replicate (unheaded line) (H460; deguelin 10^−10M): 0.783 and 0.761 and 0.743
- Avg. % con (H460; deguelin 10^−12M): 1.06 % con
- MTT value, mean of replicates (unheaded line) (H460; deguelin 10^−12M): 0.788
- MTT value, replicate (unheaded line) (H460; deguelin 10^−12M): 0.797 and 0.75 and 0.816
- Avg. % con (H358; deguelin 10^−6M): 0.68 % con
- MTT value, mean of replicates (unheaded line) (H358; deguelin 10^−6M): 0.111
- MTT value, replicate (unheaded line) (H358; deguelin 10^−6M): 0.108 and 0.113 and 0.112
- Avg. % con (H358; deguelin 10^−8M): 0.74 % con
- MTT value, mean of replicates (unheaded line) (H358; deguelin 10^−8M): 0.122
- MTT value, replicate (unheaded line) (H358; deguelin 10^−8M): 0.114 and 0.128 and 0.125
- Avg. % con (H358; deguelin 10^−10M): 0.79 % con
- MTT value, mean of replicates (unheaded line) (H358; deguelin 10^−10M): 0.129
- MTT value, replicate (unheaded line) (H358; deguelin 10^−10M): 0.122 and 0.12 and 0.146
- Avg. % con (H358; deguelin 10^−12M): 0.87 % con
- MTT value, mean of replicates (unheaded line) (H358; deguelin 10^−12M): 0.143
- MTT value, replicate (unheaded line) (H358; deguelin 10^−12M): 0.148 and 0.143 and 0.139
- Avg. % con (H226B; deguelin 10^−6M): 0.34 % con
- MTT value, mean of replicates (unheaded line) (H226B; deguelin 10^−6M): 0.113
- MTT value, replicate (unheaded line) (H226B; deguelin 10^−6M): 0.117 (2×) and 0.106
- Avg. % con (H226B; deguelin 10^−8M): 0.46 % con
- MTT value, mean of replicates (unheaded line) (H226B; deguelin 10^−8M): 0.150
- MTT value, replicate (unheaded line) (H226B; deguelin 10^−8M): 0.153 and 0.147 and 0.149
- Avg. % con (H226B; deguelin 10^−10M): 0.86 % con
- MTT value, mean of replicates (unheaded line) (H226B; deguelin 10^−10M): 0.283
- MTT value, replicate (unheaded line) (H226B; deguelin 10^−10M): 0.295 and 0.282 and 0.272
- Avg. % con (H226B; deguelin 10^−12M): 0.91 % con
- MTT value, mean of replicates (unheaded line) (H226B; deguelin 10^−12M): 0.299
- MTT value, replicate (unheaded line) (H226B; deguelin 10^−12M): 0.274 and 0.32 and 0.304
